Our source for the IT6 and IC50 values is patent US20090048269A1 (AstraZeneca AB, priority 2007, published 2009).

Experiment [1] can be described thus: IT6 (abbreviation not defined).
Experiment [2] deals with T1, human ALK5 (Homo sapiens, UniProt P36897).
T1 sequence (P36897 162-503): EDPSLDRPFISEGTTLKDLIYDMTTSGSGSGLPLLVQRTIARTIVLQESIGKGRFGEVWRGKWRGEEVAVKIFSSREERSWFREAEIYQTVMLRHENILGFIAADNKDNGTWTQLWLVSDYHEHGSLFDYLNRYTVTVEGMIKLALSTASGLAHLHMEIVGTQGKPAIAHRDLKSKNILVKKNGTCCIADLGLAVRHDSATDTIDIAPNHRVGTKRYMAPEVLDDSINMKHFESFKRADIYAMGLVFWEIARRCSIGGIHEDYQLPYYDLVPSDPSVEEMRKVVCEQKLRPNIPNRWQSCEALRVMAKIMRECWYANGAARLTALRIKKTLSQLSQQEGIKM
Put plainly: ALK5 Enzyme Assay 2 (fluorescence polarisation probe displacement). Format: binding. Set-up: 6His tagged human ALK5 (residues162-503) was grown and purified from insect cells; 6His; made in house; host or cells: insect cells. Particulars: read-out: EAA2: activity (μM) using Enzyme Assay 2. The method in brief: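 Recombinant ALK5 (3 μg/mL) incubated with test compound in 50 mM HEPES pH7.4, 10 mM MgCl2, 1 mM DTT, 0.01% CHAPS. Displacement of a fluorescent quinazoline-based ALK5 probe (50 nM final) in presence of 1 μM ATP read by fluorescence polarisation.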

Experiment [3] relates to TGFβ1 mediated smad2 nuclear translocation. Description: Cell Assay (Smad2 Redistribution Assay, MDA-MB-468 Smad2-EGFP cells). Format: cell-based. To be noted: Homo sapiens, read-out: CAA: cell assay activity. An excerpt: Ligand mediated translocation of R-Smads (Smads 1,2,3,5,8) is a well-documented phenomenon in a variety of cell types. (Derynck, R. and Zhang, Y., 2003, Nature, 425, 577-584, Shi, Y. and Massague, J., 2003, Cell, 113, 685-700). Specifically TGFβ1 and TGFβ3 cause phosphorylation and nuclear translocation of Smad2 and Smad3 transcription factors. Thus compound inhibition of TGFβsignalling can be estimated by measuring cellular distribution of Smad2 or 3 under activated TGFβpathway. The Smad2 Redistribution™ Assay (Fisher BioImage ApS) was used to assess in vitro cellular activity of compounds of interest. The breast adenocarcinoma MDA-MB-468 parent cell line was used to create a recombinant cell line, MDA-MB-468 PS213 I GScl4C8 containing Smad2 fused to the C-terminus of enhanced green fluorescent protein (Smad2-EGFP). This enables monitoring of cellular distribution of Smad2 using high throughput fluorescence microscopy.
This assay measures the ability of compounds to inhibit TGFβ1 mediated smad2 nuclear translocation. Compounds dose ranges were created by diluting in 100% DMSO and then further into assay media (RPMI1640, 1% FCS, 10 mM HEPES pH 7.4). Cells were plated in 96 well Packard View plates at 8×10^3 per well in 100 μL RPMI1640, 10% FCS, 0.5 mg/mL geneticin and grown for 48 hrs. […] Plates were then read on an ArrayScan Vti instrument to determine nuclear to cytoplasmic staining. […]

In experiment [4] the target is T1, human ALK5. Description: ALK5 Enzyme Assay 1. Format: biochemical. Set-up: 6His tagged ALK5 protein (amino acids 162-503) expressed in insect cells; 6His; made in house; host or cells: insect cells. To be noted: read-out: EAA: activity (μM) using Enzyme Assay 1. As for the experimental part:
This assay measures the ability of a compound to bind to and inhibit the activity of ALK5 protein in vitro. […] Assay measurements were performed in assay buffer comprising 60 mM HEPES pH 7.4, 3 mM MgCl2, 3 mM MnCl2, 3 μM Na orthovanadate, 1.2 mM DTT and 0.05% PEG2000. […] Reactions were performed in the presence of 200 μg/mL casein (Sigma-Aldrich C4765-10ML), 200 ng/mL ALK5, 0.5 μM ATP (Sigma-Aldrich A7699), 1 μCi/mL γ-33P ATP. Following addition of casein, ATP and compound, reactions were initiated by adding ALK5 enzyme and reactions run for 90 minutes. After incubation reactions were terminated by addition of 20 μL per well of 50% orthophosphoric acid. 20 minutes after addition of 70% v/v TCA, precipitated protein was transferred to GF/C 96 well plates using a Tomtec harvester with 1.5% orthophosphoric acid. […] All reactions were performed under linear kinetics.

In turn, `CNC(=O)c1nc(C)ccc1Oc1ccnc(Nc2ccccc2)c1` [Example 97, 3-(2-Anilinopyridin-4-yl)oxy-N,6-dimethylpyridine-2-carboxamide] had an IT6 in experiment [1] of 0.9458. Further, at human ALK5 [2], the IC50 was 0.348 µM.
For `COc1cc(Nc2cc(Oc3ccc(C)nc3-c3cccc(C)c3)ccn2)cc(OC)c1OC` [Example 57, 4-[6-Methyl-2-(3-methylphenyl)pyridin-3-yl]oxy-N-(3,4,5-trimethoxyphenyl)-pyridin-2-amine], the IC50 in experiment [3] stood at 90.4 nM; at human ALK5 [4], 0.0154 µM.
On to `COc1cc(Nc2cc(Oc3cccnc3C)ccn2)cc(OC)c1OC` [Example 9, 4-(2-Methylpyridin-3-yl)oxy-N-(3,4,5-trimethoxyphenyl)-pyridin-2-amine], for which the IC50 at human ALK5 [4] was determined as 0.114 µM; on human ALK5 [2], 0.187 µM.
On the same counts, the results for `Cc1cc(Oc2ccnc(Nc3cccnc3)c2)c(-c2ccccn2)nc1C` [Example 15, 4-(5,6-Dimethyl-2-pyridin-2-yl-pyridin-3-yl)oxy-N-pyridin-3-yl-pyridin-2-amine] are 0.0129 µM and 0.0147 µM.
On the same counts, the results for `COc1cc(Nc2cc(Oc3cccnc3-c3cccc(C)n3)ccn2)cc(OC)c1OC` [Example 1, 4-[2-(6-Methylpyridin-2-yl)pyridin-3-yl]oxy-N-(3,4,5-trimethoxy-phenyl)pyridin-2-amine] are 0.0783 µM and 0.089 µM.
For `COc1cc(Nc2cc(Oc3ccc(C)nc3-c3cnccn3)ccn2)cc(OC)c1OC` [Example 48, 4-(6-Methyl-2-pyrazin-2-yl-pyridin-3-yl)oxy-N-(3,4,5-trimethoxy-phenyl)pyridin-2-amine], the figures for the IC50 on human ALK5 [4] and at human ALK5 [2] were 0.0751 µM and 0.0486 µM, respectively.
Turning to `COc1ccc(S(C)(=O)=O)cc1Nc1cc(Oc2cc(C)c(C)nc2-c2ccccn2)ccn1` [Example 17, 4-(5,6-Dimethyl-2-pyridin-2-yl-pyridin-3-yl)oxy-N-(2-methoxy-5-methylsulfonyl-phenyl)pyridin-2-amine], the values for the IC50 on human ALK5 [4] and on human ALK5 [2] were 0.0147 µM and 0.0514 µM, respectively.
For `CCn1nccc1Nc1cc(Oc2cc(C)c(C)nc2-c2ccccn2)ccn1` [Example 32, 4-(5,6-Dimethyl-2-pyridin-2-yl-pyridin-3-yl)oxy-N-(2-ethylpyrazol-3-yl)-pyridin-2-amine], the IC50 at human ALK5 [4] turned out to be 0.0425 µM; on human ALK5 [2], 0.0339 µM.
On to `Cc1cc(Oc2ccnc(Nc3cccc(F)c3)c2)c(-c2ccccn2)nc1C` [Example 29, N-(3-Fluorophenyl)-4-(5,6-dimethyl-2-pyridin-2-yl-pyridin-3-yl)-oxy-pyridin-2-amine], for which the IC50 at human ALK5 [4] amounted to 0.0166 µM; on human ALK5 [2], 0.0184 µM.
On the same counts, the results for `COc1cccc(-c2nc(C)ccc2Oc2ccnc(Nc3cc(OC)c(OC)c(OC)c3)c2)c1` [Example 58, 4-[2-(3-Methoxy-phenyl)-6-methyl-pyridin-3-yl]oxy-N-(3,4,5-trimethoxy-phenyl)pyridin-2-amine] are 0.0187 µM and 0.135 µM.
Taken in the same sequence, the figures for `Cc1cc(Oc2ccnc(Nc3cccc(C#N)c3)c2)c(-c2ccccn2)nc1C` [Example 41, 3-{[4-(5,6-Dimethyl-2-pyridin-2-yl-pyridin-3-yl)oxypyridin-2-yl]-amino}-benzonitrile] were 0.0141 µM and 0.0123 µM.
Taken in the same sequence, the figures for `COc1cc(Nc2cc(Oc3ccc(C)nc3-c3ccccn3)ccn2)cc(OC)c1OC` [Example 47, 4-(6-Methyl-2-pyridin-2-yl-pyridin-3-yl)oxy-N-(3,4,5-trimethoxy-phenyl)pyridin-2-amine] were 0.0248 µM and 0.0108 µM.
Consider `Cc1cc(Oc2ccnc(Nc3ccc(Cl)cc3)c2)c(-c2ccccn2)nc1C` [Example 30, N-(4-Chlorophenyl)-4-(5,6-dimethyl-2-pyridin-2-yl-pyridin-3-yl)oxy-pyridin-2-amine], for which the IC50 at human ALK5 [4] was 1.67 µM; at human ALK5 [2] it was 0.894 µM.
In the case of `COc1cc(Nc2cc(Oc3cccnc3-c3ccccc3)ccn2)cc(OC)c1OC` [Example 49, 4-(2-Phenylpyridin-3-yl)oxy-N-(3,4,5-trimethoxyphenyl)pyridin-2-amine], the IC50 on human ALK5 [4] worked out at 0.00782 µM; at human ALK5 [2], 0.00804 µM.
Taken in the same sequence, the figures for `Cc1cc(Oc2ccnc(Nc3ccc(S(C)(=O)=O)cc3)c2)c(-c2ccccn2)nc1C` [Example 13, 4-(5,6-Dimethyl-2-pyridin-2-yl-pyridin-3-yl)oxy-N-(4-methylsulfonyl-phenyl)-pyridin-2-amine] were 0.00853 µM and 0.0103 µM.
On the same counts, the results for `COc1cc(Nc2cc(Oc3cccnc3-c3ccccc3C#N)ccn2)cc(OC)c1OC` [Example 50, 2-(3-{2-[(3,4,5-Trimethoxyphenyl)amino]pyridin-4-yl}-oxypyridin-2-yl)benzonitrile] are 0.126 µM and 0.0308 µM.
`COc1cc(Nc2cc(Oc3cc(C)c(C)nc3-c3cccc(C)n3)ccn2)cc(OC)c1OC` [Example 2, 4-[5,6-Dimethyl-2-(6-methylpyridin-2-yl)pyridin-3-yl]oxy-N-(3,4,5-trimethoxy-phenyl)pyridin-2-amine]: the IC50 amounted to 0.0337 µM at human ALK5 [4] and 0.0723 µM at human ALK5 [2].
